Measurements reported in EP2016954A1, “Antibodies against 4-(methylnitrosamino)-1-(3-pyridyl)-1-butanone and metabolites thereof” (Muller, Claude P., priority 2007, dated 2009).
“And” between values parts separate entries of the source, which are not always exact repeats. Equal values may be shown once.

Key:
P9D5 = experiment: Competition ELISA with mAb P9D5 on immobilized [NNK-C2]-OVA; type: binding, mouse; settings: for IC50: competitor inhibiting binding of P9D5 to [NNK-C2]-OVA; for IC50 compared with the one of NNK: P9D5, result in words; for inhibition of P9D5 binding: competition ELISA, result in words
Method: (§1) In all competition experiments, optimal antigen coating conditions and serum dilutions were determined by direct ELISA. 384-well plates were coated with the minimal amount of antigen required for maximal signal. Sera or mAb supernatants were diluted to obtain 70% binding and a signal of 1.0 to 1.5 O.D. at 0% competition (highest signal). The competitors (NNK and its metabolites (NNAL, NNK-N-ox, NNAL-N-ox, keto acid (1-(3-pyridyl)-1-butanone-4-carboxylic acid), PBCA (1-(3-pyridyl)-1-butanol-4-carboxylic acid), PB (1-(3-pyridyl)-1-butanediol) and HPB (4-hydroxy-1-(3-pyridyl)-1-butanone)), from Toronto Research Chemicals Inc., Canada and Acros Organics, Geel, Belgium) were resuspended in 100% dimethylsulfoxide and stock solutions of […] were frozen at -80°C. Competitors were mixed 1:1 with sera or mAb supernatants to final concentrations of 0 to 512 µM for mAbs or 0 to 1024 µM for serum. Zero (highest signal) and 100% competition (background signal) were determined using no or NNK-C2 as competitor. The difference between these two values corresponds to the dynamic range of the assay. For each competitor concentration, the 50% of inhibitory concentration, IC50 was calculated. Experiments were independently repeated three times and data were analyzed used SigmaStat software. Net OD was calculated by subtraction of the relevant background as described in each figure.

P7H3 = experiment: Competition ELISA with mAb P7H3; type: binding, mouse; settings: for IC50: competitor inhibiting binding of P7H3; for inhibition of P7H3 binding: competition ELISA, result in words
Method: as §1

P9D5 and P7H3 = experiment: Competition ELISA, results stated jointly for both mAbs; type: binding, mouse; settings: for IC50: range over P9D5 and P7H3; for binding of the antibodies: N-oxidation of the pyridyl ring, result in words
Method: as §1

anti-[NNK-C2]-DT sera = experiment: Competition ELISA with mouse sera on coated [NNK-C2]-OVA; type: binding, BALB/c mice; settings: for IC50: competitor inhibiting binding of serum antibodies to coated [NNK-C2]-OVA; for specific reactivity of mouse sera: competition ELISA
Method: Specific antibodies were monitored after each injection of [NNK-C2]-DT. […] NNK-specific antibodies were monitored by competition ELISA by adding increasing concentrations of NNK as competitors (0-256µM) (Figure 1) to measure their capacity to inhibit the binding of serum antibodies to coated [NNK-C2]-OVA.
as §1

NCI-H82 cells = experiment: NNK-induced proliferation of NCI-H82 cells (ATP bioluminescence); type: cell-based, human; settings: NNK 25 nM, 24h
Method: NCI-H82 cells were obtained from European Collection of Cell Cultures and maintained in RPMI 1640 with 2 mM L-glutamine (Biowhittaker, Verviers, BE) with the above supplements ("NCI-H82 medium"). Every 2 or 3 days cell medium was renewed. Cells were subcultured once a week. All cultures were mycoplasma-free.
For proliferation experiments, NCI-H82 cells were seeded at a concentration of about 8 x 10^3 cells/well in 200 µl of NCI-H82 medium on collagen type I coated 96-well plates (Greiner Bio-one, Wemmel, BE) and incubated at 37°C and 10% CO2. Proliferation assays were performed at 10% CO2 since CO2 seems to act as a potent messenger molecule for SCLC cells, enhancing the susceptibility of this cancer cell to a host of autocrine and paracrine growth-stimulating signals. After 18h, medium was replaced by fresh NCI-H82 medium containing only 0.15% heat-inactivated fetal bovine serum ("low serum medium") 6h prior NNK treatment. Stock solutions of NNK were prepared in dimethyl sulfoxide. […] Cell proliferation was assessed 24h after treatment using the ViaLightTM HS kit according to the manufacturer's instructions (Cambrex Bioscience, Verviers, BE). Bioluminescence of ATP present in metabolically active cells, was measured on a GENios Plus fluorescence plate reader (Tecan, Mechelen, BE). […]

Row | SMILES | IC50 (P9D5) | IC50 (P9D5 and P7H3) | IC50 (anti-[NNK-C2]-DT sera) | inhibition of P7H3 binding (P7H3) | other results
1 | Cc1cccnc1 [3-picoline] | 400 µM | – | – | – | IC50 (P7H3): 320 µM
2 | CCOC(=O)c1cccnc1 [ENAT, ethylnicotinate] | 49 µM | 49 to 80 µM | – | – | IC50 (P7H3): 80 µM
3 | O=C(CCCO)c1cccnc1 [HPB, 4-hydroxy-1-(3-pyridyl)-1-butanone] | 50 µM | – | 80 µM | moderately inhibited | –
4 | O=C(O)c1ccc[n+]([O-])c1 [NIA-N-Ox, nicotinic acid-N-oxide] | – | – | – | – | binding of the antibodies (P9D5 and P7H3): totally obliterates binding
5 | CN(CCCC(O)c1cccnc1)N=O (centres unmarked) [NNAL, 4-(methylnitrosamino)-1-(3-pyridyl)-1-butanol] | 20 µM | 29 to 93 µM | 80 µM | – | –
6 | CN(CCCC(O)c1ccc[n+]([O-])c1)N=O (centres unmarked) [NNAL-N-Ox, 4-(methylnitrosamino)-1-(3-pyridyl-N-oxide)-1-butanol] | – | – | – | – | specific reactivity of mouse sera (anti-[NNK-C2]-DT sera): essentially no specific reactivity was detected; binding of the antibodies (P9D5 and P7H3): totally obliterates binding
7 | CN(CCCC(=O)c1cccnc1)N=O [NNK, 4-(methylnitrosamino)-1-(3-pyridyl)-1-butanone] | 63 µM and 80 µM | 80 to 160 µM | 26 µM | – | IC50 (P7H3): 160 µM; increase of cell number in comparison to unstimulated control cells (NCI-H82 cells): 2 to 3 fold
8 | NCCN(CCCC(=O)c1cccnc1)N=O [NNK-C2, 4-[2-amino-ethyl(nitrosamino)]-1-pyridine-3-yl-butane-1-one] | 3.7 µM | 4.4 to 12 µM | – | – | –
9 | CN(CCCC(=O)c1ccc[n+]([O-])c1)N=O [NNK-N-Ox, 4-(methylnitrosamino)-1-(3-pyridyl-N-oxide)-1-butanone] | – | – | – | – | specific reactivity of mouse sera (anti-[NNK-C2]-DT sera): essentially no specific reactivity was detected; binding of the antibodies (P9D5 and P7H3): totally obliterates binding
10 | OCCCC(O)c1cccnc1 (centres unmarked) [PB, 1-(3-pyridyl)-1-butanediol] | 72 µM | – | 230 µM | moderately inhibited | –
11 | O=C(O)CCC(O)c1cccnc1 (centres unmarked) [PBCA, 1-(3-pyridyl)-1-butanol-4 carboxylic acid] | – | – | – | moderately inhibited | IC50 compared with the one of NNK (P9D5): significant increase of the IC50; inhibition of P9D5 binding (P9D5): moderate inhibition
12 | O=C(O)CCC(=O)c1cccnc1 [keto acid, 1-(3-pyridyl)-1-butanone-4 carboxylic acid] | – | – | – | moderately inhibited | IC50 compared with the one of NNK (P9D5): significant increase of the IC50; inhibition of P9D5 binding (P9D5): moderate inhibition
